In patent publication US6130239A, “4-Alkenyl- and 4-alkynyloxindoles” (Hoffmann-La Roche Inc., priority 1999, dated 2000):
Counter-ions that a name gives are not always drawn.

Biological target: T1, Cyclin E/CDK2 (Homo sapiens, UniProt P24941)
T1 construct: made in house; host or cells: insect cells
Test: CDK2 FlashPlate Assay (inhibition of Rb phosphorylation by Cyclin E/CDK2)
Format: biochemical
Conditions: Table IA; recombinant human Cyclin E/CDK2, Rb substrate, 25 minutes room temperature

Compound	IC50 [µM]
CCC(O)C#Cc1cccc2c1/C(=C/c1[nH]ccc1OC)C(=O)N2 (racemic) [R, rac-(Z)-1,3-Dihydro-4-(3-hydroxy-1-pentynyl)-3-[(3-methoxy-1H-pyrrol-2-yl)methylene]-2H-indol-2-one]	< 4
COc1cc[nH]c1/C=C1\C(=O)Nc2cccc(C#CCCC(=O)O)c21 [H, (Z)-5-[2,3-Dihydro-3-[(3-methoxy-1H-pyrrol-2-yl)methylene]-2-oxo-1H-indol-4-yl]-4-pentynoic acid]	< 4
COC(=O)NCC#Cc1cccc2c1/C(=C/c1[nH]ccc1OC)C(=O)N2 [LL, (Z)-[3-[2,3-Dihydro-3-[(3-methoxy-1H-pyrrol-2-yl)methylene]-2-oxo-1H-indol-4-yl]-2-propynyl]carbamic acid methyl ester]	< 4
COc1cc[nH]c1/C=C1\C(=O)Nc2cccc(C#CC3(O)CCCC3)c21 [AA, (Z)-1,3-Dihydro-4-[(1-hydroxycyclopentyl)ethynyl]-3-[(3-methoxy-1H-pyrrol-2-yl)methylene]-2H-indol-2-one]	< 4
COc1cc[nH]c1/C=C1\C(=O)Nc2cccc(C#CCCC(N)=O)c21 [J, (Z)-5-[2,3-Dihydro-3-[(3-methoxy-1H-pyrrol-2-yl)methylene]-2-oxo-1H-indol-4-yl]-4-pentynamide]	< 4
COc1cc[nH]c1/C=C1\C(=O)Nc2ccc(N)c(C#CCO)c21 [Compound BB, (Z)-5-Amino-1,3-dihydro-4-(3-hydroxy-1-propynyl)-3-[(3-methoxy-1H-pyrrol-2-yl)methylene]-2H-indol-2-one]	< 4
COc1cc[nH]c1/C=C1\C(=O)Nc2cccc(C#CCO)c21 [Y, (Z)-1,3-Dihydro-4-(3-hydroxy-1-propynyl)-3-[(3-methoxy-1H-pyrrol-2-yl)methylene]-2H-indol-2-one]	< 4
COc1cc[nH]c1/C=C1\C(=O)Nc2cccc(C#CCOC(N)=O)c21 [MM, (Z)-Carbamic acid 3-[2,3-dihydro-3-[(3-methoxy-1H-pyrrol-2-yl)methylene]-2-oxo-1H-indol-4-yl]-2-propynyl ester]	< 4
COc1cc[nH]c1/C=C1\C(=O)Nc2ccc(NC(=O)Cc3cccs3)c(C#CCCC(=O)O)c21 [HH, (Z)-5-[2,3-Dihydro-3-[(3-methoxy-1H-pyrrol-2-yl)methylene]-2-oxo-5-[(2-thienylacetyl)amino]-1H-indol-4-yl]-4-pentynoic acid]	< 4
COC(=O)C(CC#Cc1cccc2c1/C(=C/c1[nH]ccc1OC)C(=O)N2)C(=O)OC [V, (Z)-[3-[2,3-Dihydro-3-[(3-methoxy-1H-pyrrol-2-yl)methylene]-2-oxo-1H-indol-4-yl]-2-propynyl]propanedioic acid dimethyl ester]	< 4
COc1cc[nH]c1/C=C1\C(=O)Nc2cccc(C#CCCCC(=O)O)c21 [G, (Z)-6-[2,3-Dihydro-3-[(3-methoxy-1H-pyrrol-2-yl)methylene]-2-oxo-1H-indol-4-yl]-5-hexynoic acid]	< 4
COC(=O)CCC#Cc1cccc2c1/C(=C/c1[nH]ccc1OC)C(=O)N2 [F, (Z)-5-[2,3-Dihydro-3-[(3-methoxy-1H-pyrrol-2-yl)methylene]-2-oxo-1H-indol-4-yl]-4-pentynoic acid methyl ester]	< 4
COC(=O)CCC#Cc1c(N)ccc2c1/C(=C/c1[nH]ccc1OC)C(=O)N2 [FF, (Z)-5-[5-Amino-2,3-dihydro-3-[(3-methoxy-1H-pyrrol-2-yl)methylene]-2-oxo-1H-indol-4-yl]-4-pentynoic acid methyl ester]	< 4
COc1cc[nH]c1/C=C1\C(=O)Nc2cccc(C#CCNCc3ccccc3)c21 [KK, (Z)-1,3-Dihydro-3-[(3-methoxy-1H-pyrrol-2-yl)methylene]-4-[3-(N-phenylmethylamino)-1-propynyl]-2H-indol-2-one]	< 4
COc1cc[nH]c1/C=C1\C(=O)Nc2cccc(C#CC(C)(O)CC(C)C)c21 (racemic) [O, rac-(Z)-1,3-Dihydro-4-(3,5-dimethyl-3-hydroxy-1-hexynyl)-3-[(3-methoxy-1H-pyrrol-2-yl)methylene]-2H-indol-2-one]	< 4
CNCC#Cc1cccc2c1/C(=C/c1[nH]ccc1OC)C(=O)N2 [JJ, (Z)-1,3-Dihydro-3-[(3-methoxy-1H-pyrrol-2-yl)methylene]-4-[3-(N-methylamino)-1-propynyl]-2H-indol-2-one trifluoroacetate salt]	< 4
CCC(C)(O)C#Cc1cccc2c1/C(=C/c1[nH]ccc1OC)C(=O)N2 (racemic) [D, rac-(Z)-1,3-Dihydro-4-(3-hydroxy-3-methyl-1-pentynyl)-3-[(3-methoxy-1H-pyrrol-2-yl)methylene]-2H-indol-2-one]	< 4

Compound	IC50 [µM]
COc1cc[nH]c1/C=C1\C(=O)Nc2cccc(C#CCC(C(=O)O)C(=O)O)c21 [W, (Z)-[3-[2,3-Dihydro-3-[(3-methoxy-1H-pyrrol-2-yl)methylene]-2-oxo-1H-indol-4-yl]-2-propynyl]propanedioic acid]	< 4
COc1cc[nH]c1/C=C1\C(=O)Nc2cccc(C#CCCCCO)c21 [A, (Z)-1,3-Dihydro-4-(6-hydroxy-1-hexynyl)-3-[(3-methoxy-1H-pyrrol-2-yl)methylene]-2H-indol-2-one]	< 4
COc1cc[nH]c1/C=C1\C(=O)Nc2cccc(C#CCCO)c21 [C, (Z)-1,3-Dihydro-4-(4-hydroxy-1-butynyl)-3-[(3-methoxy-1H-pyrrol-2-yl)methylene]-2H-indol-2-one]	< 4
COc1cc[nH]c1/C=C1\C(=O)Nc2cccc(C#CCCCC(N)=O)c21 [K, (Z)-6-[2,3-Dihydro-3-[(3-methoxy-1H-pyrrol-2-yl)methylene]-2-oxo-1H-indol-4-yl]-5-hexynamide]	< 4
CCCC(C)(O)C#Cc1cccc2c1/C(=C/c1[nH]ccc1OC)C(=O)N2 (racemic) [N, rac-(Z)-1,3-Dihydro-4-(3-hydroxy-3-methyl-1-hexynyl)-3-[(3-methoxy-1H-pyrrol-2-yl)methylene]-2H-indol-2-one]	< 4
COc1cc[nH]c1/C=C1\C(=O)Nc2cccc(C#CCCCO)c21 [Compound B, (Z)-1,3-Dihydro-4-(5-hydroxy-1-pentynyl)-3-[(3-methoxy-1H-pyrrol-2-yl)methylene]-2H-indol-2-one]	< 4
CNC(=O)OCC#Cc1cccc2c1/C(=C/c1[nH]ccc1OC)C(=O)N2 [NN, (Z)-N-Methylcarbamic acid 3-[2,3-dihydro-3-[(3-methoxy-1H-pyrrol-2-yl)methylene]-2-oxo-1H-indol-4-yl]-2-propynyl ester]	< 4
Cc1nc[nH]c1/C=C1\C(=O)Nc2ccc(F)c(C#CCNC(N)=O)c21 [ZZ, (Z)-[3-[5-fluoro-2,3-dihydro-3-[(4-methyl-1H-imidazol-5-yl)methylene]-2-oxo-1H-indol-4-yl]-2-propynyl]urea]	< 4
CCCCCC(O)C#Cc1cccc2c1/C(=C/c1[nH]ccc1OC)C(=O)N2 (racemic) [Q, rac-(Z)-1,3-Dihydro-4-(3-hydroxy-1-octynyl)-3-[(3-methoxy-1H-pyrrol-2-yl)methylene]-2H-indol-2-one]	< 4
COc1cc[nH]c1/C=C1\C(=O)Nc2cccc(C#CC3(O)CCCCC3)c21 [M, (Z)-1,3-Dihydro-4-[(1-hydroxycyclohexyl)ethynyl]-3-[(3-methoxy-1H-pyrrol-2-yl)methylene]-2H-indol-2-one]	< 4
COc1cc[nH]c1/C=C1\C(=O)Nc2ccc(NC(=O)c3ccncc3)c(C#CCO)c21 [DD, (Z)-N-[2,3-Dihydro-4-(3-hydroxy-1-propynyl)-3-[(3-methoxy-1H-pyrrol-2-yl)methylene]-2-oxo-1H-indol-5-yl]-4-pyridinecarboxamide]	< 4
C#CCOCCO [Example 21, 3-(2-Hydroxyethoxy)-1-propyne]	< 4
COCC#Cc1cccc2c1/C(=C/c1[nH]ccc1OC)C(=O)N2 [X, (Z)-1,3-Dihydro-4-(3-methoxy-1-propynyl)-3-[(3-methoxy-1H-pyrrol-2-yl)methylene]-2H-indol-2-one]	< 4
COc1cc[nH]c1/C=C1\C(=O)Nc2cccc(C#CCN)c21 [II, (Z)-4-(3-Amino-1-propynyl)-1,3-dihydro-3-[(3-methoxy-1H-pyrrol-2-yl)methylene]-2H-indol-2-one trifluoroacetate salt]	< 4
COc1cc[nH]c1/C=C1\C(=O)Nc2cccc(C#CC(C)(C)O)c21 [L, (Z)-1,3-Dihydro-4-(3-hydroxy-3-methyl-1-butynyl)-3-[(3-methoxy-1H-pyrrol-2-yl)methylene]-2H-indol-2-one]	< 4
COC(=O)CCCC#Cc1cccc2c1/C(=C/c1[nH]ccc1OC)C(=O)N2 [E, (Z)-6-[2,3-Dihydro-3-[(3-methoxy-1H-pyrrol-2-yl)methylene]-2-oxo-1H-indol-4-yl]-5-hexynoic acid methyl ester]	< 4
CCCCC[C@H](O)C#Cc1cccc2c1/C(=C/c1[nH]ccc1OC)C(=O)N2 [U, (S)-(Z)-1,3-Dihydro-4-(3-hydroxy-1-octynyl)-3-[(3-methoxy-1H-pyrrol-2-yl)methylene]-2H-indol-2-one]	< 4

Same assay, conditions: Table IB; concentration ≤1.0 μM

Compound	inhibition at 1 µM [%]
COC(=O)CCC#Cc1c([N+](=O)[O-])ccc2c1/C(=C/c1[nH]ccc1OC)C(=O)N2 [EE, (Z)-5-[2,3-Dihydro-3-[(3-methoxy-1H-pyrrol-2-yl)methylene]-5-nitro-2-oxo-1H-indol-4-yl]-4-pentynoic acid methyl ester]	> 60
COc1cc[nH]c1/C=C1\C(=O)Nc2ccc([N+](=O)[O-])c(C#CCO)c21 [Z, (Z)-1,3-Dihydro-4-(3-hydroxy-1-propynyl)-3-[(3-methoxy-1H-pyrrol-2-yl)methylene]-5-nitro-2H-indol-2-one]	> 90
